These results are taken from patent US4579859A, “Vasodilating trinitratoalkyl esters of 2-cyano-1,4-dihydropyridines” (Fujisawa Pharmaceutical Co., Ltd., priority 1983, dated 1986).

≈ marks a conversion by molar mass, not a printed value. Like-named read-outs stand apart in the source and are kept apart here.

In this assay the test system is isolated coronary artery. Description: Effect on isolated coronary artery (relaxation of KF-contracted spiral strips; papaverine 10^-4 M = 100%). On the set-up: species or system dogs. Conditions: Canis lupus familiaris, read-out: ED50 values. On the procedure: The large coronary arteries, 2.0 mm in outside diameter were removed from pentobarbital-anesthetized dogs. Spiral strips approximately 15 mm in length were cut from the large arteries, and suspended in an organ bath containing calcium-free-Tyrode's solution with EGTA 0.2 mM at 37° C., aerated with a gas mixture of 95% oxygen and 5% carbon dioxide. The tonus of the strips was recorded on a polygraph with a force-displacement transducer. After the initial resting tension was adjusted to 1.0 g for the large artery, potassium fluoride 10 mM was added to the organ bath to increase the tonus of the large arterial strips to 1.4-1.6 g.
The cumulative concentrations of the test compound were then added, and finally paraverine 10^-4 M was given to determine maximum relaxation. ED50 values were calculated by interpolation from the mean cumulative dose-activity curves (effect of papaverine 10^-4 M=100%).

As to `CCOC(=O)C1=C(C)NC(C)=C(C(=O)OCC(CO[N+](=O)[O-])(CO[N+](=O)[O-])CO[N+](=O)[O-])C1c1cccc(Cl)c1Cl` (stereo not drawn) [Compound A, 3-Nitrooxy-2,2-bis(nitrooxymethyl)propyl ester of 4-(2,3-dichlorophenyl)-5-ethoxycarbonyl-2,6-dimethyl-1,4-dihydropyridine-3-carboxylic acid], the EC50 is 0.97 µg/mL (≈ 1.56 µM).
As for `COC(=O)C1=C(C#N)NC(C)=C(C(=O)OCC(CO[N+](=O)[O-])(CO[N+](=O)[O-])CO[N+](=O)[O-])C1c1cccc([N+](=O)[O-])c1` (stereo not drawn) [Compound B, 3-Nitrooxy-2,2-bis(nitrooxymethyl)propyl ester of 6-cyano-5-methoxycarbonyl-2-methyl-4-(3-nitrophenyl)-1,4-dihydropyridine-3-carboxylic acid], the EC50 was determined as 0.17 µg/mL (≈ 0.285 µM).
Take `COC(=O)C1=C(C)NC(C)=C(C(=O)OC)C1c1ccccc1[N+](=O)[O-]` [Nifedipine, Dimethyl esters of 2,6-dimethyl-4-(2-nitrophenyl)-3,5-dicarboxylic acid, reference compound]: under “isolated dog large coronary artery strips, calcium-free Tyrode's solution with EGTA 0.2 mM, 37° C., tonus by potassium fluoride 10 mM, cumulative concentrations, papaverine 10^-4 M = 100%”, the EC50 is above 1 µg/mL.
